Laboratory results reported in patent US6552061B1, “Amino acid derivatives and anti-inflammatory agents” (Ajinomoto Co., Inc., priority 1998, dated 2003).

Columns and labels:
Format in all cases: cell-based
collagenase = assay: Test for an Activity of Inhibiting Collagenase Expression (MMP-1 ELISA, UVA-irradiated human dermal fibroblasts); details: Fibroblast, light or radiation study, 24 h, read-out: inhibitory rate (%) of collagenase expression; for inhibition at 1 µM: concentration 1 μM; for inhibition at 10 µM: concentration 10 μM; for inhibition at 100 µM: concentration 0.1 mM; for inhibition at 1000 µM: concentration 1 mM; for inhibition at 500 µM: concentration 0.5 mM
Protocol: Test for an Activity of Inhibiting Collagenase Expression
(§1) The test compound was added to human dermal fibroblasts which had become confluent in a culture plate. Eighteen hours later, the culture solution was replaced with a phenol red-free medium. The cells were subjected to UV irradiation (UVA; 20 J/cm^2) using Dermaray M-DMR-80 (supplied by Toshiba Iryo Yohin KK). After 24 hours passed, the culture solution was recovered, and the collagenase concentration in the culture solution was measured using MMP-1α·ELISA System (supplied by Amersham Corp.). The rate of inhibition of collagenase expression on the test compound was calculated using formula (VI).
Rate (%) of inhibition of collagenase expression={1−(B4−B6)/(B5−B6)}×100 (VI)
B4: collagenase concentration in the addition of the test compound
B5: collagenase concentration in the non-addition of the test compound
B6: collagenase concentration when the test compound was not added, nor was UV irradiation conducted

IL-1α = assay: Test for an Activity of Inhibiting IL-1α Expression (ELISA, UVB-irradiated human epidermal cells); details: light or radiation study, 24 h, read-out: inhibitory rate (%) of IL-1α expression; for inhibition at 10 µM: concentration 10 μM; for inhibition at 50 µM: concentration 50 μM; for inhibition at 100 µM: concentration 100 μM
Protocol: Test for an Activity of Inhibiting IL-1α Expression
as §1, with “epidermal cells” for “dermal fibroblasts”, “(UVB: 50 mJ/cm^2)” for “(UVA; 20 J/cm^2)”, “IL-1α” for “collagenase”, “IL-1α·ELISA” for “MMP-1α·ELISA”, “(V).” for “(VI).”
Rate (%) of inhibition of IL-1α expression={1−(B1−B3)/(B2−B3)}×100 (V)
B1: IL-1α concentration in the addition of the test compound
B2: IL-1α concentration in the non-addition of the test compound
B3: IL-1α concentration when the test compound was not added, nor was UV irradiation conducted

AP-1 = assay: Test for an Activity of Inhibiting AP-1 Activation (gel shift assay, UVA-irradiated human dermal fibroblasts); details: AP1, light or radiation study, read-out: inhibitory rate (%) of AP-1 activation; for inhibition at 10 µM: concentration 10 μM; for inhibition at 20 µM: concentration 20 μM; for inhibition at 1 µM: concentration 1 μM; for inhibition at 5 µM: concentration 5 μM; for inhibition at 500 µM: concentration 0.5 mM; for inhibition at 1000 µM: concentration 1 mM
Protocol: Test for an Activity of Inhibiting AP-1 Activation
(§2) The test compound was added to human dermal fibroblasts which had become confluent in a culture plate. Eighteen hours later, the culture solution was replaced with a phenol red-free medium. The cells were subjected to UV irradiation (UVA: 20 J/cm^2) using Dermaray M-DMR-80 (supplied by Toshiba Iryo Yohin KK). After from 4 to 5 hours passed, the cells were recovered, and the nucleoproteins were extracted in a usual manner. With respect to the resulting nucleoproteins, AP-1 activated by gel shift assay was detected. The amount of AP-1 was determined by measuring a radioactivity of an AP-1 band using a bio-imaging analyzer BAS 2000 (supplied by Fuji Photo Film). The rate of inhibition of AP-1 activation on the test compound was calculated using formula (IV).
Rate (%) of inhibition of AP-1 activation={1−(A4−A6)/(A5−A6)}×100 (IV)
A4: radioactivity of an AP-1 band in the addition of the test compound
A5: radioactivity of an AP-1 band in the non-addition of the test compound
A6: radioactivity of an AP-1 band when the test compound was not added, nor was UV irradiation conducted

NF-κB = assay: Test for an Activity of Inhibiting NF-κB Activation (gel shift assay, UVB-irradiated human epidermal cells); details: light or radiation study, read-out: inhibitory rate (%) of NF-κB activation; for inhibition at 10 µM: concentration 10 μM; for inhibition at 100 µM: concentration 100 μM; for inhibition at 1000 µM: concentration 1 mM; for inhibition at 2000 µM: concentration 2 mM; for inhibition at 50 µM: concentration 50 μM
Protocol: Test for an Activity of Inhibiting NF-κB Activation
as §2, with “Eighteen” for “The test compound was added to human dermal fibroblasts which had become confluent in a culture plate. Eighteen”, “(UVB: 50 mJ/m^2)using” for “(UVA: 20 J/cm^2) using”, “NF-κB” for “AP-1”, “(III).” for “(IV).”
Rate (%) of inhibition of NF-κB activation={1−(A1−A3)/(A2−A3)}×100 (III)
A1: radioactivity of an NF-κB band in the addition of the test compound
A2: radioactivity of an NF-κB band in the non-addition of the test compound
A3: radioactivity of an NF-κB band when the test compound was not added, nor was UV irradiation conducted

For `CCCCCCCCCCCCNC(=O)[C@H](C)NCc1ccccc1O` [N-(2-hydroxybenzyl)-L-alanine lauryl amide], the inhibition at 1 µM (collagenase) was 57%, the inhibition at 10 µM (IL-1α) was 69% and the inhibition at 50 µM (IL-1α) was 73%. For the same compound, the inhibition at 10 µM (AP-1) was 57%, the inhibition at 20 µM (AP-1) was 56% and the inhibition at 10 µM (NF-κB) was 53%. It also gave an inhibition at 20 µM (NF-κB; concentration 20 μM) of 65%.
`CCCCCCCCCCCCOC(=O)[C@H](C)NCc1ccccc1O` [N-(2-hydroxybenzyl)-L-alanine lauryl ester] showed an inhibition at 10 µM (collagenase) of 58%, an inhibition at 10 µM (IL-1α) of 23% and an inhibition at 100 µM (IL-1α) of 72%. The inhibition at 10000 µM (AP-1; concentration 10 mM) was 68%, the inhibition at 10 µM (NF-κB) was 20% and the inhibition at 100 µM (NF-κB) was 81%.
Work on `CCCCCCCCCCCCCCCCCCNC(=O)[C@H](C)NCc1ccccc1O` [N-(2-hydroxybenzyl)-L-alanine stearyl amide] yielded an inhibition at 1 µM (collagenase) of 72%, an inhibition at 5 µM (IL-1α; concentration 5 μM) of 30% and an inhibition at 10 µM (IL-1α) of 77%. It also gave an inhibition at 1 µM (AP-1) of 72% and an inhibition at 5 µM (AP-1) of 47%.
In the case of `CCCCCCCCCCCCCCCCCCOC(=O)[C@H](C)NCc1ccccc1O` [N-(2-hydroxybenzyl)-L-alanine stearyl ester], the inhibition at 1 µM (collagenase) is reported as 57%, the inhibition at 1 µM (IL-1α; concentration 1 μM) is reported as 25% and the inhibition at 10 µM (IL-1α) is reported as 25%. It also gave an inhibition at 1 µM (AP-1) of 20%, an inhibition at 5 µM (AP-1) of 48% and an inhibition at 10 µM (NF-κB) of 31%.
`CCCCCCCCCCCCOC(=O)[C@H](CCC(=O)O)NCc1ccccc1O` [N-(2-hydroxybenzyl)-L-glutamic acid lauryl ester] gave an inhibition at 1 µM (collagenase) of 53%, an inhibition at 10 µM (collagenase) of 49% and an inhibition at 10 µM (IL-1α) of 54%. It also gave an inhibition at 10 µM (AP-1) of 33% and an inhibition at 100 µM (NF-κB) of 45%.
For `CCOC(=O)[C@H](Cc1c[nH]cn1)NCc1ccccc1O` [N-(2-hydroxybenzyl)-L-histidine ethyl ester], the inhibition at 100 µM (collagenase) was 44%, the inhibition at 1000 µM (collagenase) was 51% and the inhibition at 500 µM (AP-1) was 20%. The inhibition at 1000 µM (AP-1) was 38%, the inhibition at 1000 µM (NF-κB) was 69% and the inhibition at 2000 µM (NF-κB) was 72%.
`CCCCCCCCCCCCNC(=O)[C@H](CC(C)C)NCc1ccccc1O` [N-(2-hydroxybenzyl)-L-leucine lauryl amide] was tested, and the inhibition at 1 µM (collagenase) was 37%, the inhibition at 10 µM (collagenase) was 60% and the inhibition at 20 µM (IL-1α; concentration 20 μM) was 27%. The inhibition at 50 µM (IL-1α) was 79%, the inhibition at 10 µM (NF-κB) was 40% and the inhibition at 50 µM (NF-κB) was 89%.
Compound `CCNC(=O)[C@H](Cc1ccccc1)NCc1ccccc1O` [N-(2-hydroxybenzyl)-L-phenylalanine ethyl amide] has an inhibition at 100 µM (collagenase) of 32%, an inhibition at 500 µM (collagenase) of 27% and an inhibition at 500 µM (AP-1) of 34%. The inhibition at 1000 µM (AP-1) was 61%, the inhibition at 500 µM (NF-κB; concentration 0.5 mM) was 102% and the inhibition at 1000 µM (NF-κB) was 47%.
Compound `CCCCCCCCCCCCNC(=O)[C@@H]1CCC(=O)N1Cc1ccccc1O` [N-(2-hydroxybenzyl)-L-pyroglutamic acid lauryl amide] has an inhibition at 10 µM (collagenase) of 23%, an inhibition at 50 µM (collagenase; concentration 50 μM) of 52% and an inhibition at 10 µM (IL-1α) of 25%. It also gave an inhibition at 50 µM (IL-1α) of 28%, an inhibition at 100 µM (AP-1; concentration 100 μM) of 42% and an inhibition at 50 µM (NF-κB) of 75%. The inhibition at 100 µM (NF-κB) was 74%.
Compound `CCOC(=O)[C@H](CO)NCc1ccccc1O` [N-(2-hydroxybenzyl)-L-serine ethyl ester] has an inhibition at 500 µM (collagenase) of 30%, an inhibition at 2000 µM (IL-1α; concentration 2 mM) of 44% and an inhibition at 1000 µM (AP-1) of 73%. For the same compound, the inhibition at 1000 µM (NF-κB) was 37% and the inhibition at 2000 µM (NF-κB) was 56%.
In the case of `CCCCCCCCCCCCNC(=O)[C@H](Cc1ccc(O)cc1)NCc1ccccc1O` [N-(2-hydroxybenzyl)-L-tyrosine lauryl amide], the inhibition at 1 µM (collagenase) is reported as 42%, the inhibition at 10 µM (collagenase) is reported as 84% and the inhibition at 10 µM (IL-1α) is reported as 56%. The inhibition at 10 µM (AP-1) was 40%, the inhibition at 20 µM (AP-1) was 55% and the inhibition at 10 µM (NF-κB) was 39%.
For `CCCCCCCCCCCCOC(=O)[C@H](Cc1ccc(O)cc1)NCc1ccccc1O` [N-(2-hydroxybenzyl)-L-tyrosine lauryl ester], the inhibition at 10 µM (collagenase) was 61%, the inhibition at 1 µM (AP-1) was 19% and the inhibition at 10 µM (AP-1) was 45%. The inhibition at 5 µM (NF-κB; concentration 5 μM) was 20% and the inhibition at 10 µM (NF-κB) was 43%.
`CC(=O)Oc1ccccc1C(=O)O` [aspirin, reference compound] was tested, and the inhibition at 1000 µM (collagenase) was -197%, the inhibition at 1000 µM (AP-1) was -4% and the inhibition at 5000 µM (AP-1; concentration 5 mM) was 14%.
Work on `C[C@@H]1C[C@H]2[C@@H]3CCC4=CC(=O)C=C[C@]4(C)[C@@]3(F)[C@@H](O)C[C@]2(C)[C@@]1(O)C(=O)CO` [dexamethasone, reference compound] yielded an inhibition at 1 µM (collagenase) of 27%, an inhibition at 10 µM (collagenase) of 53% and an inhibition at 10 µM (IL-1α) of 48%. It also gave an inhibition at 100 µM (IL-1α) of 65%, an inhibition at 1 µM (AP-1) of 39% and an inhibition at 10 µM (AP-1) of 34%.
